From patent US11834424B2, “Compounds useful as chaperone-mediated autophagy modulators” (ALBERT EINSTEIN COLLEGE OF MEDICINE, priority 2018, dated 2023)
Values joined by “and” are separate entries in the source; they are usually repeats but may differ in a detail not shown here. Equal values may be shown once. “Also recorded” adds a separate entry of the source. Read-outs that look alike come from different tables or passages of the source.

Key:
[1] = system: chaperone-mediated autophagy (CMA) in NIH 3T3 fibroblasts; experiment: Photoswitchable KFERQ-Dendra CMA reporter assay in NIH 3T3 fibroblasts; format: cell-based
Experimental: The photoactivatable CMA reporter assay was constructed by inserting a sequence of 21 amino acid of Ribonuclease A bearing the CMA-targeting motif in the N-terminus multicloning site of the photoactivatable protein mCherryl or the photoswitchable protein Dendra 2.
NIH 3T3 fibroblasts were stably transduced with a photoconvertible CMA reporter, KFERQ-Dendra. were photoswitched by exposure to a […] (constant current) LED (Norlux, 405 nm) for 10 minutes and at the desired times fixed in 3% formaldehyde. Test cells were exposed to the indicated concentrations of the compounds for 12 hours (FIG. 3A) or 24 hours (FIG. 3B). Cells were imaged using high content microscopy (Operetta, Perkin Elmer) or by capturing images with an Axiovert 200 fluorescence microscope (Zeiss) with apotome and equipped with a 63/1.4 NA oil objective lens and red (ex. 570/30 nm, em. 615/30 nm), cyan (ex. 365/50 nm and em. 530/45 nm) and green (ex. 475/40 nm and em. 535/45 nm) filter sets (Chroma). Images were acquired with a high-resolution CCD camera after optical sectioning through the apotome. CMA activity measured as the average number of fluorescent puncta (CMA active lysosomes) per cell. Values are expressed relative to values in untreated cells that were assigned an arbitrary value of 1 and are mean of >2,500 cells counted per condition. The S.D. in all instances was <0.01% mean value. Table 2 provides a comparison of compounds CA39.1 and its comparative example CA39 and CA77.01 and its comparative example CA77.

[2] = Pharmacokinetics (plasma and brain levels) in ICR (CD-1) mice; format: in vivo; settings: i.v. 1 mg/kg; for Conc. in brain, individual animal / concentration at 0.083 h / concentration at 0.25 h / concentration at 0.5 h / concentration at 1 h / concentration at 2 h / concentration at 4 h: mouse brain; for Conc. in plasma, individual animal: mouse plasma; for Brain/Plasma ratio, individual animal / concentration at 0.083 h / concentration at 0.25 h / concentration at 0.5 h / concentration at 1 h / concentration at 2 h / concentration at 4 h: mouse; for concentration at 0.083 h / concentration at 0.25 h / concentration at 0.5 h / concentration at 1 h / concentration at 2 h / concentration at 4 h: male, ICR (CD-1), brain, iv
Experimental: ICR (CD-1) male mice were fasted at least three horns and water was available ad libitum before the study. Animals were housed in a controlled environment, target conditions: temperature 18 to 29° C., relative humidity 30 to 70%. Temperature and relative humidity was monitored daily. An electronic time controlled lighting system was used to provide a 12 h light/12 h dark cycle. 3 mice for each indicated time point. ICR (CD-1) mice were administered CA77 at 1 mg/kg i.v. and 30 mg/kg p.o. or CA77.1 at 1 mg/kg i.v. (FIG. 2A) and 10 mg/kg p.o. (FIG. 2B). Three (3) mice were included in each dosage and time group. Mice were sacrificed and plasma and brains were obtained at 0.083, 0.25, 0.50, 1.0, 2.0, 4.0, 8.0, and 24.0 hours after administration and drug concentration determined using LC-MS/MS. Brains were removed, homogenized with a tissue homogenizer in cold 5% w/v BSA in phosphate buffer saline (PBS). A 100 microliter aliquots of brain samples were dispensed in to glass culture tubes and mixed with ethyl acetate (800 μl), vortexed, and centrifuged. The organic layer was transferred to a fresh culture tube, dried under nitrogen, and reconstituted in mobile phase for quantitation. Pharmacokinetic parameters were determined by standard methods using Phoenix WinNonlin 6.3 software.
Tables 3A and 3B provide the concentrations of CA77 in ICR (CD-1) mouse plasma (3A) and mouse brain (3B) following i.v. administration of 1 mg/kg CA77. Table 3C provides the brain/plasma ratio of CA77 following i.v. administration of 1 mg/kg CA77. Shaded cells indicate data not included in statistics due to aberrant value. BLQ=Below Limit of Quantitation.
Tables 5A and 5B provide the concentrations of CA77.1 in ICR (CD-1) mouse plasma (5A) and mouse brain (5B) following i.v. administration of 1 mg/kg CA77.1. Table 5C provides the brain/plasma ratio of CA77.1 following i.v. administration of 1 mg/kg CA77.1. The plasma and brain pharmacokinetic parameters for CA77.1 are provided in Table 6. *—cells contain data not present in the statistics.

SMILES: CC(=O)Nc1ccc(-c2cnc3cc(Cl)ccc3n2)cc1 [CA77.1, N-(4-(6-chloroquinoxalin-2-yl)phenyl)acetamide]
- CMA activity (fluorescent puncta per cell, relative to untreated cells = 1) ([1]; Time 5): 2.53
- CMA activity (fluorescent puncta per cell, relative to untreated cells = 1) ([1]; Time 10): 3.365
- CMA activity (fluorescent puncta per cell, relative to untreated cells = 1) ([1]; Time 20): 5.858
- CMA activity (fluorescent puncta per cell, relative to untreated cells = 1) ([1]; Time 30): 5.889
- CL obs ([2]; ICR (CD-1) mice): 3.18 L/h/kg
- VSS_obs ([2]; ICR (CD-1) mice): 6.463 L/kg
- Conc. in brain, individual animal ([2]; 0.083 h, 1 mg/kg): 1171 ng/g and 970 ng/g
- Conc. in brain, individual animal ([2]; 0.25 h, 1 mg/kg): 813 ng/g and 691 ng/g
- Conc. in brain, individual animal ([2]; 0.50 h, 1 mg/kg): 677 ng/g and 1083 ng/g
- Conc. in brain, individual animal ([2]; 1.00 h, 1 mg/kg): 628 ng/g and 781 ng/g
- Conc. in brain, individual animal ([2]; 2.00 h, 1 mg/kg): 269 ng/g and 186 ng/g
- Conc. in brain, individual animal ([2]; 4.00 h, 1 mg/kg): 13.6 ng/g and 24.9 ng/g
- Conc. in brain, individual animal ([2]; 8.00 h, 1 mg/kg): 3.31 ng/g and 3.66 ng/g
- Conc. in brain, individual animal ([2]; 24.0 h): 0 ng/g
- Conc. in plasma, individual animal ([2]; 0.083 h, 1 mg/kg): 0.178 µg/mL and 0.214 µg/mL
- Conc. in plasma, individual animal ([2]; 0.25 h, 1 mg/kg): 0.152 µg/mL and 0.104 µg/mL
- Conc. in plasma, individual animal ([2]; 0.50 h, 1 mg/kg): 0.247 µg/mL and 0.1 µg/mL and 0.481 µg/mL
- Conc. in plasma, individual animal ([2]; 1.00 h, 1 mg/kg): 0.0793 µg/mL and 0.085 µg/mL
- Conc. in plasma, individual animal ([2]; 2.00 h, 1 mg/kg): 0.0308 µg/mL and 0.0385 µg/mL and 0.0694 µg/mL
- Conc. in plasma, individual animal ([2]; 4.00 h, 1 mg/kg): 0.00331 µg/mL and 0.00333 µg/mL and 0.0102 µg/mL
- Conc. in plasma, individual animal ([2]; 8.00 h, 1 mg/kg): 0.00143 µg/mL and 0.00142 µg/mL
- Conc. in plasma, individual animal ([2]; 24.0 h, 1 mg/kg): *7.61 ng/mL; also recorded: *16.6 ng/mL
- Brain/Plasma ratio, individual animal ([2]; 0.083 h, 1 mg/kg): 6.57 and 4.53
- Brain/Plasma ratio, individual animal ([2]; 0.25 h, 1 mg/kg): 5.35 and 6.67
- Brain/Plasma ratio, individual animal ([2]; 0.50 h, 1 mg/kg): 2.74 and 6.77 and 2.25
- Brain/Plasma ratio, individual animal ([2]; 1.00 h, 1 mg/kg): 7.92 and 9.19
- Brain/Plasma ratio, individual animal ([2]; 2.00 h, 1 mg/kg): 8.97 and 7.00 and 2.68
- Brain/Plasma ratio, individual animal ([2]; 4.00 h, 1 mg/kg): 5.48 and 4.09 and 2.44
- Brain/Plasma ratio, individual animal ([2]; 8.00 h, 1 mg/kg): 2.31 and 2.59
- concentration at 0.083 h ([2]; 1 mg/kg, 0.083 h, read-out: Conc. in brain, Mean): 1060 ng/g
- concentration at 0.083 h ([2]; 1 mg/kg, 0.083 h, read-out: Conc. in brain, individual animal): 1030 ng/g
- concentration at 0.25 h ([2]; 1 mg/kg, 0.25 h, read-out: Conc. in brain, Mean): 789 ng/g
- concentration at 0.25 h ([2]; 1 mg/kg, 0.25 h, read-out: Conc. in brain, individual animal): 864 ng/g
- concentration at 0.5 h ([2]; 1 mg/kg, 0.50 h, read-out: Conc. in brain, Mean): 812 ng/g
- concentration at 0.5 h ([2]; 1 mg/kg, 0.50 h, read-out: Conc. in brain, individual animal): 677 ng/g
- concentration at 1 h ([2]; 1 mg/kg, 1.00 h, read-out: Conc. in brain, Mean): 669 ng/g
- concentration at 1 h ([2]; 1 mg/kg, 1.00 h, read-out: Conc. in brain, individual animal): 597 ng/g
- concentration at 2 h ([2]; 1 mg/kg, 2.00 h, read-out: Conc. in brain, Mean): 244 ng/g
- concentration at 2 h ([2]; 1 mg/kg, 2.00 h, read-out: Conc. in brain, individual animal): 276 ng/g
- concentration at 4 h ([2]; 1 mg/kg, 4.00 h, read-out: Conc. in brain, Mean): 19 ng/g
- concentration at 4 h ([2]; 1 mg/kg, 4.00 h, read-out: Conc. in brain, individual animal): 18.2 ng/g
